These results are taken from US20120164226A1, “Compositions and Methods for Improving Prognosis of a Human with Subarachnoid Hemorrhage” (priority 2007, published 2012).

In experiment [1] the test system is Subarachnoid Hemorrhage (SAH) Dog Model. Nature of the experiment: Study 2: angiographic vasospasm (basilar artery diameter) in SAH dog model. Type of experiment: in vivo. To be noted: oral nimodipine 0.86 mg/kg six times per day till day 21. Here is the method: The mixture was added to a surfactant containing aqueous solution to form an emulsion and the solvent extracted to produce the flowable microparticulate nimodipine formulation. […] The microparticulate nimodipine formulation is combined with a pharmaceutical carrier to form the pharmaceutical composition of the described invention. […] The placebo formulation contained the microparticles plus vehicle, but no nimodipine. […] (Data not shown). […] On Day 1, the dogs were weighed, baseline blood was collected and blood pressure, temperature, heart rate oxygen, and blood gases were monitored throughout the surgical procedure. Cerebral angiography was performed through one vertebral artery. Images were captured using identical exposure factors and magnification for every angiogram. An internal magnification standard was included in every angiogram. […] The needle was withdrawn immediately after the injection. […] The animal was then turned supine, the femoral catheter was removed, and the femoral artery was ligated. The incision was closed in a standard fashion. […] The angiographic data was independently analyzed by two reviewers who were blinded to the animal group. […] Individual percent vasospasm was determined for each animal for Days 8 and 15 using formula (I): Average percent vasospasm for Days 8 and 15 was also determined for each group. […]

The next experiment addresses N-type calcium current (Homo sapiens, UniProt Q00975). Conditions: 300 nM to 500 nM; cited from earlier work.
The test system of another experiment is K^+ currents. Conditions: cited from earlier work.
A further experiment concerns Na^+ currents. To be noted: cited from earlier work.
The test system of experiment [2] is R-type current in preparations of the neuronal cell body, retinal ganglion cells and hippocampal pyramidal cells. To be noted: cited from earlier work.
Another experiment relates to T-type calcium currents. To be noted: cited from earlier work.
The target in experiment [3] is T1, R-type calcium current in the neurohypophysial nerve endings (Homo sapiens, UniProt Q15878).
T1 construct: R-type calcium current in the neurohypophysial nerve endings at 40 nM concentration; host or cells: neurohypophysial nerve endings
T1 sequence (Q15878 whole entry): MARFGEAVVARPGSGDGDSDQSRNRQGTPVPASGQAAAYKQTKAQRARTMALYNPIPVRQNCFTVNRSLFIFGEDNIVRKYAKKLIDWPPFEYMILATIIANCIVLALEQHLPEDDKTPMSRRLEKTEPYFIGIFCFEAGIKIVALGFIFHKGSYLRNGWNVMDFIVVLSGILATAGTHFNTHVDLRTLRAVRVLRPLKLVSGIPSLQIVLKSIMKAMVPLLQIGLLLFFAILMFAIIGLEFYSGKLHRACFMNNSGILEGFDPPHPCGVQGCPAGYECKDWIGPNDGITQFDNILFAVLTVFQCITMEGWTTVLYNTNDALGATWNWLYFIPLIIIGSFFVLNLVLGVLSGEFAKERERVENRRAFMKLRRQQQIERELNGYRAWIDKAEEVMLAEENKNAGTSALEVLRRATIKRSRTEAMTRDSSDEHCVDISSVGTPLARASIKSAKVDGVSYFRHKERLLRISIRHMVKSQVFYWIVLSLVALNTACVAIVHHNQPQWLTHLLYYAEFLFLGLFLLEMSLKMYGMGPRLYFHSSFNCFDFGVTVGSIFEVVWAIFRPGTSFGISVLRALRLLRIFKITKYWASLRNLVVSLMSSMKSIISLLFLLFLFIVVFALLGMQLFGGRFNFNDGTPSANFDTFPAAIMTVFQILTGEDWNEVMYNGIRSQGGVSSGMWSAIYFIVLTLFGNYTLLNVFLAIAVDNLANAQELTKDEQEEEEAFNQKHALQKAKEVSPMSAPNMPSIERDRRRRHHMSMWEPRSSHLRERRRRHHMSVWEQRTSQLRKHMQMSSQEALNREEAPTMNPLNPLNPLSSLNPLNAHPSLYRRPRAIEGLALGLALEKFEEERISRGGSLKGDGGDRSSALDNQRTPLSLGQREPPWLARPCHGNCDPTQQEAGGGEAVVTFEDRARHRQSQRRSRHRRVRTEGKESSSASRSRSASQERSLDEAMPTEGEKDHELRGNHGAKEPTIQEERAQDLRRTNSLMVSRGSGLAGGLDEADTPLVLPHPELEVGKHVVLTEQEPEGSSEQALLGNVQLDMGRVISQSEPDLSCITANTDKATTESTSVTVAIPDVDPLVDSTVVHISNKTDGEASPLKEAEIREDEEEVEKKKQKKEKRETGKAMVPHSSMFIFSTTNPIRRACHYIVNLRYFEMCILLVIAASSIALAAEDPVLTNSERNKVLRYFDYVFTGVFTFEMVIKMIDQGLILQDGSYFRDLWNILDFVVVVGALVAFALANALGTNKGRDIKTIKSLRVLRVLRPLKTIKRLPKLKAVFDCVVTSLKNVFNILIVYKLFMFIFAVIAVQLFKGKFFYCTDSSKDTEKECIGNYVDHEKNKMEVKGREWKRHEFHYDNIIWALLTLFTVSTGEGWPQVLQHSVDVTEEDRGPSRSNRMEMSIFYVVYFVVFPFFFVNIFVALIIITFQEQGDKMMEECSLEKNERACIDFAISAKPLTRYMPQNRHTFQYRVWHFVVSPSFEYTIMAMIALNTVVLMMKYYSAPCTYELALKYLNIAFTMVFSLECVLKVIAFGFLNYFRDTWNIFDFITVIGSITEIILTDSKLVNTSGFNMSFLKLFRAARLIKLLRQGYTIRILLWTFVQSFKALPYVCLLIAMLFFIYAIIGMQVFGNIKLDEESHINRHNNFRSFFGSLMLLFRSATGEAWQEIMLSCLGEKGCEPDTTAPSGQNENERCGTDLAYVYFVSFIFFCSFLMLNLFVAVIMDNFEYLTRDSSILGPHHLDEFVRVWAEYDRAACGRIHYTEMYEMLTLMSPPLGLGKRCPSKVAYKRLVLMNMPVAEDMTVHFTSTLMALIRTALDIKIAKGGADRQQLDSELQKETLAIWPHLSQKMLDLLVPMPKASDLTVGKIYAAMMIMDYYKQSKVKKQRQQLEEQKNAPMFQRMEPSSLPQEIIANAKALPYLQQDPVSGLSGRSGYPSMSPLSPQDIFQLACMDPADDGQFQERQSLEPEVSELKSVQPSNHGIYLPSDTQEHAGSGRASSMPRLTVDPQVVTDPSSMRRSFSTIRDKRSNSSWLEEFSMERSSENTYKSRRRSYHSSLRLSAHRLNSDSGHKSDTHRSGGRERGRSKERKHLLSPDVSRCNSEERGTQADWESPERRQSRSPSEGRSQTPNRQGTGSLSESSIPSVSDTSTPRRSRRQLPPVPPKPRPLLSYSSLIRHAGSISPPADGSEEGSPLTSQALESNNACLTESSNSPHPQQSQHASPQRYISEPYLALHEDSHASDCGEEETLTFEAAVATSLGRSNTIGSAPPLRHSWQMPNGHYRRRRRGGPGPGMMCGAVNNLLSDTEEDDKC
Conditions: 40 nM concentration; cited from earlier work.

The next experiment deals with L-type calcium currents. To be noted: cited from earlier work.
Experiment [4] has as its target P/Q-type calcium currents (Homo sapiens, UniProt O00555). To be noted: cited from earlier work.

Sequence of N-type calcium current (Q00975 whole entry): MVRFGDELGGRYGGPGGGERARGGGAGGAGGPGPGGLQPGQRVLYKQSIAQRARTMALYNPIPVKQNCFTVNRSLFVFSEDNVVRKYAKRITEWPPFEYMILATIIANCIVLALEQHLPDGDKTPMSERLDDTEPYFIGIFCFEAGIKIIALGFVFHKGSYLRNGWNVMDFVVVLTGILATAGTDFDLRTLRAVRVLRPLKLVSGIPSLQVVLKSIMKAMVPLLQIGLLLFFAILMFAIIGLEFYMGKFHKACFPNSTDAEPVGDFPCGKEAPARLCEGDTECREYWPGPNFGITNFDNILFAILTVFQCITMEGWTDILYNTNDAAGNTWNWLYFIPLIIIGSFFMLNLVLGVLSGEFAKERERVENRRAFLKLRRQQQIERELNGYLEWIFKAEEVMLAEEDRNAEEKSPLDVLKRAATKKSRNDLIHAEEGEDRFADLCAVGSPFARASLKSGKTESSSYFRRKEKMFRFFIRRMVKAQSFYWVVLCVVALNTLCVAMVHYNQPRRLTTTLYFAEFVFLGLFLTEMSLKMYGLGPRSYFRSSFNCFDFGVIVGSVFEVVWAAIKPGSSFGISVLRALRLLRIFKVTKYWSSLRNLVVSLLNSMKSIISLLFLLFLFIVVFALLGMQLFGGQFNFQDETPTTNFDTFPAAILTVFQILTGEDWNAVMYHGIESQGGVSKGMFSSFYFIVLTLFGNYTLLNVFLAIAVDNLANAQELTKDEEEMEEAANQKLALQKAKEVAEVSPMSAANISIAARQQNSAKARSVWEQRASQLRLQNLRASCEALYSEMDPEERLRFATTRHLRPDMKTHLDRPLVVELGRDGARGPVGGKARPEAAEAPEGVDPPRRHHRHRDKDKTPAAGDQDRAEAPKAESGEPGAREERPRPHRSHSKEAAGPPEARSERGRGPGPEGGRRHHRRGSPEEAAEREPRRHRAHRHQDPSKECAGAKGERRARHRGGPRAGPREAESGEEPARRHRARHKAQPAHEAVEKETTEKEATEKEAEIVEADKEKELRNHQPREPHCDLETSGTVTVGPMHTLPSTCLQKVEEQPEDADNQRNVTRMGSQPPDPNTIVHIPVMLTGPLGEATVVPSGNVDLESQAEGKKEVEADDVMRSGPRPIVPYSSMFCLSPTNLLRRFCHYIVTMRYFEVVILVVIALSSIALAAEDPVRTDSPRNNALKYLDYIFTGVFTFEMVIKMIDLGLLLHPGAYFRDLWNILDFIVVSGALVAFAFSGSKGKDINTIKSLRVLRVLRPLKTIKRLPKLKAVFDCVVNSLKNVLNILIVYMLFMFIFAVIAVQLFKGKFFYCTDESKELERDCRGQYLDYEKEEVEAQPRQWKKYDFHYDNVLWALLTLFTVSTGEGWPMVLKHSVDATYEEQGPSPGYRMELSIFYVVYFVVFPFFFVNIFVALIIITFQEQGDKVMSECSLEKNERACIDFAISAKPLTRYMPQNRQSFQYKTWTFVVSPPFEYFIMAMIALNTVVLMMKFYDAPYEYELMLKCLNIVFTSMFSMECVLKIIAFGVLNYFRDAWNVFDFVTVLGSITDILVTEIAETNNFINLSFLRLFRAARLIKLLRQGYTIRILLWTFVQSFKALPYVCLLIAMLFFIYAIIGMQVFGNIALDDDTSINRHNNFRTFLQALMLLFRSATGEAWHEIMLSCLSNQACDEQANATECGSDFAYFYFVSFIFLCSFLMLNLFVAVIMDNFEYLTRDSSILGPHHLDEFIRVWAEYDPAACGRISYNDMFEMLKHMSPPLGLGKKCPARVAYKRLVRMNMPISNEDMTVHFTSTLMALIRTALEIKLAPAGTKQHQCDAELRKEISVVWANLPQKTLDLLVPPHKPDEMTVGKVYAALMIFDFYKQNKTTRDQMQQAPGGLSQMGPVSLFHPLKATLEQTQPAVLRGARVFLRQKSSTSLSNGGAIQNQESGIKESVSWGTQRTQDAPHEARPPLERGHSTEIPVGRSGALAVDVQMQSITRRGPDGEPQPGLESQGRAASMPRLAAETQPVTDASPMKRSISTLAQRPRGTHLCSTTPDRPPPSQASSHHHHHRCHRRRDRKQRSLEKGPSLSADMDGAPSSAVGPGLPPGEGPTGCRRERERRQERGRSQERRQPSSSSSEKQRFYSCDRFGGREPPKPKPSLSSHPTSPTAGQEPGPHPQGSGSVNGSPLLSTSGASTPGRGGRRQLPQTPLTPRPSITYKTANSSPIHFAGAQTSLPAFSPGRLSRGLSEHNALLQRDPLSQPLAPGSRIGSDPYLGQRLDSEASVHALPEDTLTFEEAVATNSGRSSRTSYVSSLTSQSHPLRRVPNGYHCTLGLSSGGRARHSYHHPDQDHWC

Turning to `COCCOC(=O)C1=C(C)NC(C)=C(C(=O)OC(C)C)C1c1cccc([N+](=O)[O-])c1` (stereo not shown) [Control, nimodipine], the “percent vasospasm (% change in mean basilar artery diameter from baseline), Mean” value is −27.89% in experiment [1] (Day 8) and −11.67% in [1] (Day 15).

In the case of SNX-482, the “N-type calcium current blocked” value at N-type calcium current is reported as 30-50%. Further, the “effect on K+ currents” value with K^+ currents is on record as “no effect”. Further, in the experiment on Na^+ currents, the “effect on Na+ currents” value is “no effect”. In addition, the “effect on R-type current” value in experiment [2] is given as “no significant effect”. In addition, in the experiment on T-type calcium currents, the “effect on T-type calcium currents” value was “no effect”. Further, in experiment [3], the “block of R-type calcium current” value was “blocks”. For the same compound, the “effect on L-type calcium currents” value in the experiment on L-type calcium currents is on record as “no effect”. Further, in [4], the “effect on P/Q-type calcium currents” value was “no effect”.
